ChEMBL document CHEMBL3352773, “Synthesis and evaluation of the 2,4-diaminoquinazoline series as anti-tubercular agents” (Bioorg Med Chem, 2014)

Columns and labels:
Assay type in all cases: functional
[1] = system: Mycobacterium tuberculosis; assay: Antituberculosis activity against Mycobacterium tuberculosis H37Rv RM1 IS6110 at nt 801 mutant assessed as complete growth inhibition after 5 days
[2] = system: Mycobacterium tuberculosis; assay: Antituberculosis activity against Mycobacterium tuberculosis H37Rv RM2 GT deletion at 175 to 176 mutant assessed as complete growth inhibition after 5 days
[3] = system: Mycobacterium tuberculosis; assay: Antituberculosis activity against Mycobacterium tuberculosis H37Rv RM7 C115W mutant assessed as complete growth inhibition after 5 days

Measured: MIC

FC(F)(F)c1ccc(CNc2nc(N3CCCCC3)nc3ccccc23)cc1
25 µM: all assays above
